Measurements from patent US5306732A, “Tumor necrosis factor antagonist” (Xenova Limited, priority 1989, dated 1994).

Legend:
[1] = tested on: L929 cells; test: cells; assay type: cell-based; conditions: Mus musculus, L929, read-out: Inhibition of TNF-induced cytotoxicity
Experimental: (§1) TNF causes lysis at low concentrations in sensitive cell lines. A cell line, known to be sensitive to TNF, was challenged with the cytokine in the presence of vinigrol and the reduction in cell mortality (as measured by cell staining) quantified in a manner similar to the method of Matthews, Immunology, 48, 321 (1982). A measurement of the cytotoxicity of vinigrol at the various concentrations was also carried out. L929 cells (4×10^4 /well) were incubated in RPMI 1640 medium containing 10ng/ml TNF, 0.05% lactalbumin hydrolysate and 1μg/ml actinomycin D plus the stated concentration of vinigrol overnight at […]. Cells were washed, fixed with methanol, stained with crystal violet and the cell density quantified by measuring absorbance at 590nm. The cytotoxicity of the samples was determined using the above method but excluding the TNF, in which experiments cell death would be due to the added vinigrol.

[2] = tested on: TNF-receptor; test: TNF-receptor binding assay: binding of [125 I]-TNF to intact HL 60 cells; conditions: [125 I]-TNF 700pM, 2 hours at room temperature
Experimental: An in-vitro binding assay, based upon the measurement of binding of [^125 I]-TNF to intact cells, was used to measure the TNF/vinigrol interaction. The assay is similar to that of Imamura et al, J. Biol. Chem, 263, 10247-10253 (1988). More particularly, HL 60 cells (ATCC CCL 240) were grown in RPMI 1640 medium containing 10% foetal calf serum (FCS) and 1mM glutamine to a density of 1×10^6 /ml and harvested by centrifugation at 150g for 10 minutes. Cells were resuspended to a density of 2×10^7 /ml in RPMI 1640 containing 1% bovine serum albumin. [^125 I]-TNF was diluted to 2.1nM in the above buffer containing 0.6% sodium azide. Non-specific binding was estimated by measuring the binding in the presence of a 100 fold excess of unlabelled TNF. [^125 I]-TNF, final concentration 700pM, vinigrol at the stated concentration and cells at a density of 5×10^6 /ml were incubated in the above buffer for 2 hours at room temperature. The reaction was terminated by filtering onto a LKB filter mat (1205-401) followed by extensive washing with phosphate-buffered saline: The filter mat was counted for radioactivity to determine the quantity of bound [^125 I)-TNF.

[3] = in vitro; assay type: cell-based; conditions: mouse, l929 cells
Experimental: as §1

Which inhibition at 3.1 µM [1] does the source give for CC(C)C1CCC(C)C2CCC(C)C3(O)C1C=C(CO)C(O)C23 (stereo not drawn) [Vinigrol] here?
Its inhibition at 3.1 µM is 91%.

What about the inhibition at 15.5 µM [1] of the same compound?
Its inhibition at 15.5 µM is 100%.

And the inhibition at 77.5 µM [1]?
Its inhibition at 77.5 µM is 100%.

And the “Inhibition of [125 I]-TNF-binding” value ([2]; vinigrol 3.1 μM)?
Its value is 8%.

What about the “Inhibition of [125 I]-TNF-binding” value ([2]; vinigrol 31 μM) of the same compound?
Its value is 12%.

And the “Inhibition of [125 I]-TNF-binding” value ([2]; vinigrol 310 μM)?
The value was 100%.

What about the cytotoxicity at 3.1 µM [3] of the same compound?
The cytotoxicity at 3.1 µM was 30%.

What about the cytotoxicity at 15.5 µM [3] of the same compound?
Its cytotoxicity at 15.5 µM is 0%.

What about the cytotoxicity at 77.5 µM [3] of the same compound?
The cytotoxicity at 77.5 µM was 7%.
